In experiment [1] the target is T1, human μ opiate receptor (Homo sapiens, UniProt P35372).
T1 construct: purchased PerkinElmer Life Sciences, Zaventem, Belgium RB-HOM; host or cells: CHO-K1 cells (membrane preparation)
Briefly: Affinity for the human μ opiate receptor ([3H]-naloxone displacement, CHO-K1 receptor membrane preparation, SPA). It is filed as binding. The conditions noted are these: 1.5 h, test concentration 1 μM. In outline:
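Readout is percent displacement of [3H]-naloxone (1 nmol/l) from human μ receptor in CHO-K1 membranes, measured at 1 μmol/l compound. Incubation runs 90 minutes at room temperature with WGA-SPA beads in Tris-HCl/BSA buffer; non-specific binding is defined with 100 μmol/l naloxone.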

The target of experiment [2] is T2, human bradykinin 1 receptor (B1R) (Homo sapiens, UniProt P46663).
T2 construct: expressed in transfected cells; host or cells: CHO K1 cells
T2 sequence (P46663 1-353): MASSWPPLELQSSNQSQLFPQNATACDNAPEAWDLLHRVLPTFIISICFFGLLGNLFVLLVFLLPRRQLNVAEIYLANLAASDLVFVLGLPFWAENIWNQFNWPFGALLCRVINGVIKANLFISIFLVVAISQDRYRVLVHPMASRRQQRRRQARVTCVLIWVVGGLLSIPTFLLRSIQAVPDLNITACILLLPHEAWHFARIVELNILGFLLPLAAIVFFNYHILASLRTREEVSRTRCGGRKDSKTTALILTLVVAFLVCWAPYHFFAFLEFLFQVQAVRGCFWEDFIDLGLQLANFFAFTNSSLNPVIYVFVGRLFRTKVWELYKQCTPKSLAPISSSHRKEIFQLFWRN
Briefly: Functional investigation on the human bradykinin 1 receptor (B1R), Ca2+ FLIPR assay in CHO K1 hB1R cells. It is filed as cell-based. The conditions noted are these: CHO-K1, B1R antagonism human; test substance 10 μM; Ca2+ FLIPR, CHO K1 hB1R cells; read-out: B1R Ant. h [10 μM] % Inhibition. In outline:
(§1)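 Stably transfected CHO K1 cells loaded with Fluo-4; FLIPR Ca2+ fluorescence peak (ex 488/em 540 nm). Compound added first (agonism vs Lys-Des-Arg9-bradykinin ≥50 nM human, Des-Arg9-bradykinin 10 μM rat), then after 10-20 min agonist at EC80; antagonism as % inhibition, IC50 from concentration series, n=2-3, N≥2.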

In experiment [3] the target is T3, bradykinin 1 receptor (B1R) of the rat (Rattus norvegicus, UniProt P97583).
T3 construct: expressed in transfected cells; host or cells: CHO K1 cells
T3 sequence (P97583 1-337): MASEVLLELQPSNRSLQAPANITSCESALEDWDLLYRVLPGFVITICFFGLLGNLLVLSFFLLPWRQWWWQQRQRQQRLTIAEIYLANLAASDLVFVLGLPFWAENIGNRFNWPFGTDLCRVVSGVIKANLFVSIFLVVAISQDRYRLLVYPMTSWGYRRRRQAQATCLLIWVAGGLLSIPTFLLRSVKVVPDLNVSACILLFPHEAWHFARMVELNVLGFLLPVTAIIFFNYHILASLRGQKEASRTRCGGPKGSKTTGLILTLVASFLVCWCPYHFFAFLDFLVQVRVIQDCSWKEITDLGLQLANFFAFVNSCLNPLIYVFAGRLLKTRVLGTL
The experiment can be described thus: Functional investigation on the rat bradykinin 1 receptor (B1R), Ca2+ FLIPR assay in CHO K1 rB1R cells. It is filed as cell-based. The note with it: CHO-K1, B1R antagonism rat; test substance 10 μM; Ca2+ FLIPR, CHO K1 rB1R cells; read-out: B1R Ant. r [10 μM] % Inhibition. In outline:
as §1

The mark [4] stands for this setting: Table 3, to be read in the same way as Table 1, read-out: μ.

Each structure is given as a SMILES string. Read-outs that look alike come from different tables or passages of the source.

T1 sequence (P35372 whole entry): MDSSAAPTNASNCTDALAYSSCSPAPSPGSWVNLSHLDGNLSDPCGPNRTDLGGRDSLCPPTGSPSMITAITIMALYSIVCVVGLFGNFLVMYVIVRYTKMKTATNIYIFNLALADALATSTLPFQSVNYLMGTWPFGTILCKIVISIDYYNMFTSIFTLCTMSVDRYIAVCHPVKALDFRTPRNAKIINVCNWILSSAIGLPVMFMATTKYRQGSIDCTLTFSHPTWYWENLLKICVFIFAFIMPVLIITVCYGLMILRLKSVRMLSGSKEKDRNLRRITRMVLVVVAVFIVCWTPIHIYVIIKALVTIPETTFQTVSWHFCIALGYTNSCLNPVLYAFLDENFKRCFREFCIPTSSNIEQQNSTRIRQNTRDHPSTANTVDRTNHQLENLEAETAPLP

For the compound `COc1cc(C)c(S(=O)(=O)N(C)CCOCC(=O)NCC2CCC(C(CCc3ccccc3)N3CCCC3)CC2)c(C)c1` (stereo not drawn) [Example 720, 2-(2-(4-methoxy-N,2,6-trimethylphenylsulfonamido)ethoxy)-N-((4-(3-phenyl-1-(pyrrolidin-1-yl)propyl)cyclohexyl)methyl)acetamide], in experiment [1] (setting [4]), the inhibition at 1 µM is 26%. Besides, the inhibition at 10 µM in experiment [2] and in experiment [3] was 101% in each case.

For the compound `COc1cc(C)c(S(=O)(=O)N(C)CCOCC(=O)NC2CCC(C(c3ccccc3)N3CCCC3)CC2)c(C)c1C` (stereo not drawn) [Example 618, 2-{2-[(4-methoxy-2,3,6-trimethylbenzenesulfonyl)-methylamino]-ethoxy}-N-[4-(phenylpyrrolidin-1-yl-methyl)-cyclohexyl]-acetamide], the inhibition at 1 µM in experiment [1] (Table 2, read-out: μ receptor) came to 43%. In addition, the figures for the inhibition at 10 µM in experiment [2] and in experiment [3] were 95% and 3%, respectively.

`COc1cc(C)c(S(=O)(=O)N2CCCCC2COCC(=O)NC2CCC(C(CCc3ccccc3)N3CCOCC3)CC2)c(C)c1` (stereo not drawn) [Example 733, 2-((1-(4-methoxy-2,6-dimethylphenylsulfonyl)piperidin-2-yl)methoxy)-N-(4-(1-morpholino-3-phenylpropyl)cyclohexyl)acetamide]: the inhibition at 1 µM in experiment [1] (setting [4]) was determined as 21%. Also, the figures for the inhibition at 10 µM in experiment [2] and in experiment [3] were 87% and 100%, respectively.

For `O=C(COC1CCN(S(=O)(=O)c2c(Cl)cc(Cl)cc2Cl)C1)NCC1CCC(C(CCc2ccccc2)N2CCOCC2)CC1` (stereo not drawn) [Example 745, N-((4-(1-morpholino-3-phenylpropyl)cyclohexyl)methyl)-2-(1-(2,4,6-trichlorophenylsulfonyl)pyrrolidin-3-yloxy)acetamide], the inhibition at 1 µM in experiment [1] (setting [4]) turned out to be 8%. Besides, the figures for the inhibition at 10 µM in experiment [2] and in experiment [3] were 45% and 44%, respectively.

As for `COc1cc(C)c(S(=O)(=O)N2CCCCC2COCC(=O)NCC2CCC(C(CCc3ccccc3)N3CCCC3)CC2)c(C)c1` (stereo not drawn) [Example 736, 2-((1-(4-methoxy-2,6-dimethylphenylsulfonyl)piperidin-2-yl)methoxy)-N-((4-(3-phenyl-1-(pyrrolidin-1-yl)propyl)cyclohexyl)methyl)acetamide], in experiment [1] (setting [4]), the inhibition at 1 µM was 34%. Also, the inhibition at 10 µM in experiment [2] turned out to be 103%; in experiment [3] it was 102%.

As for `CN(CCOCC(=O)NCC1CCC(C(c2ccccc2)N2CCCC2)CC1)S(=O)(=O)c1c(Cl)cc(C(F)(F)F)cc1Cl` (stereo not drawn) [Example 646, 2-(2-(2,6-dichloro-N-methyl-4-(trifluoromethyl)phenylsulfonamido)ethoxy)-N-((4-(phenyl(pyrrolidin-1-yl)methyl)cyclohexyl)methyl)acetamide], the inhibition at 1 µM in experiment [1] (setting [4]) turned out to be 49%. Further, the inhibition at 10 µM in experiment [2] amounted to 60%; in experiment [3], 15%.

As to `COc1cc(C)c(S(=O)(=O)N2CCCC2COCC(=O)NCC2CCC(C(CCc3ccccc3)N3CCOCC3)CC2)c(C)c1` (stereo not drawn) [Example 749, 2-((1-(4-methoxy-2,6-dimethylphenylsulfonyl)pyrrolidin-2-yl)methoxy)-N-((4-(1-morpholino-3-phenylpropyl)cyclohexyl)methyl)acetamide], the inhibition at 1 µM in experiment [1] (setting [4]) is 12%. The results for the inhibition at 10 µM in experiment [2] and in experiment [3] were 103% and 109%, respectively.

Turning to `COc1cc(C)c(S(=O)(=O)N2CCC(OCC(=O)NC3CCC(C(c4ccccc4)N4CCOCC4)CC3)C2)c(C)c1` (stereo not drawn) [Example 687, 2-(1-(4-methoxy-2,6-dimethylphenylsulfonyl)pyrrolidin-3-yloxy)-N-(4-(morpholino(phenyl)methyl)cyclohexyl)acetamide], in experiment [1] (setting [4]), the inhibition at 1 µM is 6%. The inhibition at 10 µM is 48% in experiment [2] and 88% in experiment [3].

In the case of `COc1cc(C)c(S(=O)(=O)N2CCCC(COCC(=O)NC3CCC(C(c4ccccc4)N4CCOCC4)CC3)C2)c(C)c1` (stereo not drawn) [Example 701, 2-((1-(4-methoxy-2,6-dimethylphenylsulfonyl)piperidin-3-yl)methoxy)-N-(4-(morpholino(phenyl)methyl)cyclohexyl)acetamide], the inhibition at 1 µM in experiment [1] (setting [4]) came out at 2%. Also, the figures for the inhibition at 10 µM in experiment [2] and in experiment [3] were 16% and 49%, respectively.

The values are drawn from US8106055B2, “Substituted amide compounds” (Gruenenthal GmbH, priority 2007, dated 2012).
